Assay results published in article PMC12040169 (PLOS Biology, 2025).

experiment: in vitro; details: human, hela cells, % viability

Structure (SMILES)	viability at 28.5 h, 10 µM [%]
CC(Nc1oc(-c2ccco2)nc1S(=O)(=O)c1ccc(F)cc1)c1ccccc1 (centres unmarked) [CBK267671]	73.2
COc1ccc(CC(=O)Nc2ccc(OCC(=O)O)cc2)cc1 [CBK264244]	103
CCC1CCCCN1C(=O)c1ccccc1C(=O)OC (centres unmarked) [CBK083196]	92.4
COc1cc(NS(=O)(=O)c2ccc(NC(=O)c3cccc4ccccc34)cc2)nc(OC)n1 [CBK262465]	96.6
Cn1c(=O)c2c(nc(CN3CCN(C(=O)c4ccco4)CC3)n2Cc2ccccc2)n(C)c1=O [CBK269437]	93
CN(C)S(=O)(=O)N(CC(=O)Nc1ccccc1C(F)(F)F)c1ccccc1 [CBK268665]	102
COC(=O)c1cc(Br)ccc1NC(=O)COc1ccccc1C [CBK263715]	89.4
CCN1CCN(c2ccc(Nc3ccnc4cc5ccccc5cc34)cc2)CC1 [CBK261130]	79.8
Cc1nn(CCCC(=O)O)c(C)c1I [CBK269796]	91.3
CCN1C(=O)CC2(C1=O)C(=O)N(CCCOc1ccc(Cl)cc1)c1ccc(C)cc12 (centres unmarked) [CBK075648]	109
Nc1ccc2c(c1)/C(=C/c1c[nH]c3ncccc13)C(=O)N2 [CBK010155T]	103
Cc1ccc(-c2n[nH]c(=S)n2CC(=O)N(C)Cc2ccc(N3CCOCC3)cc2)cc1 [CBK297908]	85.9
O=C(Cc1ccccc1)N1CCC(c2nc3ccccc3s2)CC1 [CBK070145]	92.6
O=C(O)C/N=C1/CCCc2ccccc2N1 [CBK261809]	90.7
Fc1cccc(-c2c[nH]nc2C2CCOCC2)c1 [CBK283465]	91
CCCCOc1ccc(-c2ccc(C#N)cc2)cc1 [CBK056958]	93
Cn1c(CCNC(=O)C2CCCCC2)nc2cc([N+](=O)[O-])ccc21 [CBK268440]	106
CONc1nc(/N=C/N(C)C)nc2c1ncn2C1CC(O)C(CO)O1 (centres unmarked) [CBK201335]	92.7
COc1ccc(C(=O)N2CCC3(CCN(C(=O)CC4CCCCC4)C3)C2)cc1OC (centres unmarked) [CBK131770]	94.7
O=C(NCCc1ccc(Cl)cc1)C1(Cc2cccc(-c3cccnc3)c2)CCOCC1 [CBK285606]	96.7
CC(C)(C)SCCNS(=O)(=O)c1ccc(Cl)c(Cl)c1 [CBK057015]	92.1
CC1=CCC2C(=O)N(c3ccccc3)C(=O)C2C1 (centres unmarked) [CBK086490]	84.1

Structure (SMILES)	viability at 28.5 h, 10 µM [%]
O=C1Nc2c(cnn2-c2ccccc2Cl)C2=NCCCN12 [CBK283331]	100
COC(=O)[C@H]1CN(C(=O)CN2CCCC2=O)C[C@@H]1c1ccc(F)cc1 [CBK283507]	93.3
Cc1cc(Cl)ccc1OCCCC(=O)N1CCc2ccccc21 [CBK059016]	97.8
CN1CCN(C(=O)c2ccc(-c3ccc4c(c3)OCO4)nc2NCc2cccnc2)CC1 [CBK076110]	90.7
CN(CCN1CCCCC1)C(=O)c1ccccc1Cn1cccn1 [CBK281904]	105
COCc1cccc(-c2ccc(C(=O)N(C)CCN(C)C)c(N(C)C)n2)c1 [CBK106091]	103
COC(=O)c1ccc(N2C(=O)CC(N3CCC(n4c(=O)[nH]c5ccccc54)CC3)C2=O)cc1 (centres unmarked) [CBK268714]	94.6
CC1(C)O[C@@H]2O[C@@H](C(O)CNC(=O)c3ccccc3)[C@@H](O)[C@@H]2O1 (some centres unmarked) [CBK008736]	87
CC(C)C(=O)Nc1cc2cccnc2c(-c2ccc3c(c2)CCO3)n1 [CBK081260]	114
CC(C)N1CC[C@@H]2[C@H]1C(=O)NC[C@H](CCC(=O)NCc1ccccc1)N2C [CBK289027]	91.7
O=S(=O)(Nc1cc(-c2ccco2)n[nH]1)c1ccc(Br)cc1C(F)(F)F [CBK067286]	96.2
O=S(=O)(NC1c2cccc3cccc(c23)C1N1CCNCC1)c1ccc(Cl)cc1 (centres unmarked) [CBK264082]	92.2
OC[C@H]1CCN(Cc2cc(Cl)ccc2OCCCn2ccnc2)C[C@H]1O [CBK306581]	88.4
Cc1ccccc1N1C(=O)/C(=C/c2cn(Cc3ccccc3[N+](=O)[O-])c3ccccc23)SC1=S [CBK265101]	101
Cc1cccc([C@H]2CN(C(=O)C3CCCC3)[C@@H]3CCN(C4CCCC4)C[C@H]23)c1 [CBK285529]	118
S=c1nc(-c2ccccc2)n2cc(Br)ccc2n1 [CBK026696]	111
Cc1[nH]c(=O)[nH]c(=S)c1C(=O)NCc1cccc(Cl)c1C [CBK115493]	94.6
Cc1cccc(C)c1NC(=O)CN1CCCN(c2nccc(OCC3COc4ccccc4O3)n2)CC1 (centres unmarked) [CBK083974]	102
O=C(/C=C/C=C/c1ccccc1)CC1(O)C(=O)N(Cc2cccc3ccccc23)c2ccccc21 (centres unmarked) [CBK264744]	93.6
Cc1ccc(C2=CCN(C(=O)c3cccc(S(=O)(=O)N(C)C)c3)CC2)cc1 [CBK298273]	90.9
CCOc1cc(/C=C2\SC(=N)NC2=O)ccc1OS(=O)(=O)c1ccc(NC(C)=O)cc1 [CBK265243]	94
COc1cc(C(C)NC2CCN(c3nc(C)cs3)CC2)ccn1 (centres unmarked) [CBK304247]	83.4

Structure (SMILES)	viability at 28.5 h, 10 µM [%]
COc1cc2cc(O)c(C)c(NCc3ccco3)c2cc1OC [CBK013723]	84.4
COc1ccc(-c2cc3n[nH]c(=O)n3c(C)n2)cc1 [CBK288439]	91.1
CN(C)c1ccc(-c2noc([C@@H]3CCCN3C3CCOCC3)n2)cn1 [CBK288903]	93.8
Cc1ccc(CNC(=O)CSc2nc(C)c(C)c(=O)[nH]2)cc1 [CBK287735]	92.8
COc1c(Cl)cc(Cl)cc1CNC1CCCc2c1cnn2C (centres unmarked) [CBK304305C]	90.6
Fc1ccc(-n2c(C3CC3)n[nH]c2=S)cc1Cl [CBK288364]	96.7
C(=C\c1nccnc1OCCc1cccs1)/c1ccccc1 [CBK106873]	101
O=[N+]([O-])c1ccc(Oc2ccccc2)nc1 [CBK002726]	85.8
CC(=O)c1ccc(NC(=O)CSc2nc(O)cc(-c3ccccc3)n2)cc1 [CBK269048]	96
Nc1cc(N)nc(SCc2cccnc2)n1 [CBK267459]	97.5
CC(=O)c1c(C)nn(C(C)CC(=O)O)c1C (centres unmarked) [CBK269101]	103
O=C(NC1CCCCC1)[C@@H]1C=CCN1C(=O)c1cccs1 [CBK284338]	95.8
CCOC(=O)c1c(CN(C)C)n(-c2ccccc2)c2cc(Br)c(O)cc12 [CBK261309C]	83.4
CC1CCCCN1C(=O)c1ccc(-n2ccnc2)c(-n2cccc2)c1 (centres unmarked) [CBK284832]	95.5
Cc1cc(C(=O)O)c(C)cc1N [CBK022781]	95.5
CC1(C)CCCN(C(=O)CCn2ccc3ccncc32)C1 [CBK285173]	87.3
O=C(O)c1cc(-c2ccc(OC(F)F)cc2)[nH]n1 [CBK288022]	87.1
CSC(=S)n1c(C)nc2ccccc21 [CBK018539]	92.3
COc1ccc(CN(Cc2ccsc2)[C@@H]2COC[C@H]2c2ccc(F)cc2)cc1 [CBK286485]	112
CC(=O)c1cccc(NC(=O)C2CCCN(S(=O)(=O)c3ccc(Cl)cc3)C2)c1 (centres unmarked) [CBK266847]	102
O=C(COc1cccc2c1CCNC2=O)Nc1ccccc1 [CBK287730]	89
CCCc1[nH]nc(O)c1CCc1c(F)cccc1Cl [CBK081121]	93.8

Structure (SMILES)	viability at 28.5 h, 10 µM [%]
Nc1ccc(-n2c(-c3ccccc3)c3c(c2-c2ccc(Cl)cc2)C(=O)c2ccccc2C3=O)cc1 [CBK262695]	87.3
Cc1ccc(S(=O)(=O)NCC(C)O)cc1-c1nnc2c3ccccc3c(C)nn12 (centres unmarked) [CBK266614]	106
COc1ccc(CC(=O)N2CCC(c3cc4ncccc4[nH]3)CC2)cc1 [CBK283386]	84.3
Cc1[nH]c(C(=O)NCCc2ccco2)c(C)c1C(=O)OC(C)C [CBK295180]	84.1
O=S(=O)(c1ccc(OC(F)(F)F)cc1)N1CCc2ccccc21 [CBK044279]	96.7
O=C1S/C(=C\c2ccc(F)c(Br)c2)C(=O)N1c1cccc(Cl)c1 [CBK095450]	87.7
CC(CCN1CCN(C)CC1)c1ccccc1 (centres unmarked) [CBK261881]	88.5
Cc1cc(C(C)(C)C)cc(C)c1S(=O)(=O)NCCSCCN [CBK013357]	97.8
Clc1ccc(CN2CCN(c3nccnc3OCc3cccnc3)CC2)cc1 [CBK083130T]	99.6
Oc1ccc2[nH]c3c(c2c1)CCNC31CCN(CCOc2ccccc2)C1 (centres unmarked) [CBK081496]	85.9
O=C(O)C1Cc2ccccc2C(=O)N1CCc1ccccc1 (centres unmarked) [CBK286592]	87.4
C=CCN1CCCC[C@H]2CN(S(=O)(=O)c3cccc(F)c3)C[C@H]21 [CBK285500]	103
O=C(Nc1c(Cl)cccc1Cl)c1ccc(-c2ccccc2)cc1 [CBK262300]	94.5
COc1ccc(C(=O)NCCc2nc3ccccc3[nH]2)cc1 [CBK261040]	101
N#CCCCN1CCC2(CC1)CN(C(=O)CO)c1ccccc12 [CBK137007]	86
CCOc1ccc(-c2ccnc(NCC3CCCOC3)n2)cc1C(=O)O (centres unmarked) [CBK307694]	88.2
CCOc1cccc(-c2cncc(NC(C)CCCC(C)(C)O)n2)c1 (centres unmarked) [CBK066020]	95.6
Cc1cccc(N2CCN(C(=O)C3C4CCC(O4)C3C(=O)O)CC2)c1C (centres unmarked) [CBK287044]	90
Cc1ccnc2nc(C(=O)OCC(=O)Nc3cccc(C#N)c3)nn12 [CBK305068]	100
CN1CCN(C(=O)c2ccc(-c3nccnc3NCCc3cccnc3)cc2)CC1 [CBK036838]	97.2
COc1ccc(C2N3CCCN2CC3)cc1 (centres unmarked) [CBK067068]	92.3
Cl/C(=C\c1ccccc1)CN1CCOCC1 [CBK261892]	114

same assay, conditions: human, hela cells, % viability, bulk resorufin, single well

Structure (SMILES)	viability at 28.5 h, 10 µM [%]
CC(=O)c1ccc(-c2ccc3c(c2)COC2(CCN(C(C)=O)CC2)O3)s1 [CBK060967]	109
